From patent US8580965B2, “Substituted sulfonamide compounds” (Gruenenthal GmbH, priority 2006, dated 2013)

What was measured:
[1] = target: T1, human B1R receptor (bradykinin 1 receptor) (Homo sapiens, UniProt P46663); test: FLIPR Ca2+ assay (Fluo-4) on CHO K1 cells stably transfected with the human B1R gene; % activation and % inhibition at 10 μM; assay type: cell-based; conditions: CHO-K1, test substance 10 μM; CHO K1 hB1R cells; Ca2+ inflow after 0.5 nM Lys-Des-Arg9-bradykinin; read-out: B1R antagonism, human [10 μM] % inhibition
T1 construct: host or cells: CHO K1 cells (hB1R cells)
T1 sequence (P46663 1-353): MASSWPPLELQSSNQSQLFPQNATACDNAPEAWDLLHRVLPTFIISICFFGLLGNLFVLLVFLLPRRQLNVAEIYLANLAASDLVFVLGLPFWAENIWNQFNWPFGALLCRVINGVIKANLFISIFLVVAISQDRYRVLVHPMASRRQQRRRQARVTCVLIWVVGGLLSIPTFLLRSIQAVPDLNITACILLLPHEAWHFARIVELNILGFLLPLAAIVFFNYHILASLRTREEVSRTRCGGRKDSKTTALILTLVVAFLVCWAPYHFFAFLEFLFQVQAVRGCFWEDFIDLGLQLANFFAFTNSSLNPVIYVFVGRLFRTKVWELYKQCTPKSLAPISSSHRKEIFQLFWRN
Method: (§1) The agonistic or antagonistic action of substances can be quantified on the bradykinin receptor 1 (B1R) of the species human and rat with ectopically expressing cell lines (CHO K1 cells) and with the aid of a Ca^2+-sensitive dye (Fluo-4) using a fluorescent imaging plate reader (FLIPR). The indication in % activation is based on the Ca^2+ signal after addition of Lys-Des-Arg^9-bradykinin (0.5 nM) or Des-Arg^9-bradykinin (100 nM). Antagonists result in a suppression of the Ca^2+ influx following administration of the agonist. The % inhibition in comparison with the maximum achievable inhibition is indicated.
(§2) Functional Investigation on the Bradykinin 1 Receptor (B1R)
(§3) The agonistic or antagonistic action of substances can be determined on the bradykinin 1 receptor (B1R) of the human and rat species with the following assay. According to this assay, the Ca^2+ inflow through the channel is quantified with the aid of a Ca^2+-sensitive dyes (Fluo-4 type, Molecular Probes Europe BV, Leiden, The Netherlands) in a fluorescent imaging plate reader (FLIPR, Molecular Devices, Sunnyvale, USA).
(§4) Chinese Hamster Ovary cells (CHO K1 cells) which are stably transfected with the human B1R gene (hB1R cells, Euroscreen s.a., Gosselies, Belgium) or the B1R gene of the rat (rB1R cells, Axxam, Milan, Italy) are used. For functional investigations, these cells are plated-out on black 96-well plates with a clear base (BD Biosciences, Heidelberg, Germany) in a density of 20,000-25,000 cells/well. Overnight, the cells are incubated at 37° C. and 5% CO2 in culture medium (hB1R cells: Nutrient Mixture Ham's F12, Gibco Invitrogen GmbH, Karlsruhe, Germany; rB1R cells: D-MEM/F12, Gibco Invitrogen, Karlsruhe, Germany) with 10 vol. % FBS (foetal bovine serum, Gibco Invitrogen GmbH, Karlsruhe, Germany). On the following day, the cells are loaded with 2.13 μM Fluo-4 (Molecular Probes Europe BV, Leiden, The Netherlands) in HBSS buffer (Hank's buffered saline solution, Gibco Invitrogen GmbH, Karlsruhe, Germany) […] (Sigma-Aldrich, Taufkirchen, Germany) and 10 mM HEPES (Sigma-Aldrich, Taufkirchen, Germany) for 60 min at 37° C. The plates are subsequently washed 2× with HBSS buffer, and HBSS buffer which additionally contains 0.1% BSA (bovine serum albumin; Sigma-Aldrich, Taufkirchen, Germany), 5.6 mM glucose and 0.05% gelatine (Merck KGaA, Darmstadt, Germany) is added. After a further incubation of 20 minutes at room temperature, the plates are inserted into the FLIPR for Ca^2+ measurement. The Ca^2+-dependent fluorescence is measured here before and after addition of substances (λex=488 nm, λem=540 nm). The quantification is effected by measurement of the highest fluorescence intensity (FC, fluorescence counts) over time.
(§5) The FLIPR protocol comprises 2 additions of substance. Test substances (10 μM) are first pipetted on to the cells and the Ca^2+ inflow is compared with the control (hB1R: Lys-Des-Arg^9-bradykinin 0.5 nM; rB1R: Des-Arg^9-bradykinin 100 nM). The value in % activation based on the Ca^2+ signal after addition of Lys-Des-Arg^9-bradykinin (0.5 nM) or Des-Arg^9-bradykinin (100 nM) is obtained therefrom. After incubation for 10 minutes, 0.5 nM Lys-Des-Arg^9-bradykinin (hB1R) or 100 nM Des-Arg^9-bradykinin (rB1R) are applied and the inflow of Ca^2+ is likewise determined. Antagonists lead to a suppression of the Ca^2+ inflow. % inhibition compared with the maximum inhibition which can be achieved is calculated. The compounds show a good activity on the human and on the rat receptor. The following data were determined by way of example: […]

[2] = target: T2, B1R receptor of the rat (bradykinin 1 receptor) (Rattus norvegicus, UniProt P97583); test: FLIPR Ca2+ assay (Fluo-4) on CHO K1 cells stably transfected with the B1R gene of the rat; % activation and % inhibition at 10 μM; assay type: cell-based; conditions: CHO-K1, test substance 10 μM; CHO K1 rB1R cells; Ca2+ inflow after 100 nM Des-Arg9-bradykinin; read-out: B1R antagonism, rat [10 μM] % inhibition
T2 construct: host or cells: CHO K1 cells (rB1R cells)
T2 sequence (P97583 1-337): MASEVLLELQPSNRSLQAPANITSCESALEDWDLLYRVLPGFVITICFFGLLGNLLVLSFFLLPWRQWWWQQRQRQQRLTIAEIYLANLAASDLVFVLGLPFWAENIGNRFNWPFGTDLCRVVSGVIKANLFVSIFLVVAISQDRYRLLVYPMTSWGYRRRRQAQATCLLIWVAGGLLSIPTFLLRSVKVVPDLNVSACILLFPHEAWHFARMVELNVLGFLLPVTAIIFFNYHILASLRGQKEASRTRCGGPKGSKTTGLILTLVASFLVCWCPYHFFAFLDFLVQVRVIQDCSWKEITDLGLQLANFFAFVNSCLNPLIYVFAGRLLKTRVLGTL
Method: as §1, §2, §3, §4, §5

| Structure (SMILES) | inhibition at 10 µM [1] | inhibition at 10 µM [2] |
| --- | --- | --- |
| COc1ccc(S(=O)(=O)N2CCC(OCC(=O)N3CCC(O)(Cc4ccccc4)CC3)(c3ccccc3)CC2)cc1 [Example 82, 1-(4-benzyl-4-hydroxy-piperidin-1-yl)-2-[1-(4-methoxy-phenylsulfonyl)-4-phenyl-piperidin-4-yloxy]-ethanone] | 9.32% | 17.9% |
| O=C(COC1CCCCC1N(Cc1ccccc1)S(=O)(=O)c1ccc(Cl)c(Cl)c1)N1CCC(O)(c2ccc(Cl)cc2)CC1 (stereo not shown) [Example 83, N-benzyl-3,4-dichloro-N-(2-(2-(4-(4-chlorophenyl)-4-hydroxypiperidin-1-yl)-2-oxoethoxy)cyclohexyl)phenylsulfonamide] | 11.3% | -12.6% |
| COc1ccc(S(=O)(=O)N2CCC(OCC(=O)N3CCC(O)(c4ccccn4)CC3)(c3ccccc3)CC2)cc1 [Example 74, 1-(4′-hydroxy-3′,4′,5′,6′-tetrahydro-2′H-[2,4′]bipyridinyl-1′-yl)-2-[1-(4-methoxy-phenylsulfonyl)-4-phenyl-piperidin-4-yloxy]-ethanone] | -7.3% | -3.17% |
| O=C(COCC1CCc2ccccc2N1S(=O)(=O)c1ccc(Cl)c(Cl)c1)N1CCC(O)(c2cccc(F)c2)CC1 (stereo not shown) [Example 145, 2-((1-(3,4-dichlorophenylsulfonyl)-1,2,3,4-tetrahydroquinolin-2-yl)methoxy)-1-(4-(3-fluorophenyl)-4-hydroxypiperidin-1-yl)ethanone] | – | 77.3% |
| O=C(COC1CCN(S(=O)(=O)c2ccccc2)CC1)N1CCC(O)(c2cccnc2)CC1 [Example 46, 2-(1-phenylsulfonyl-piperidin-4-yloxy)-1-(4′-hydroxy-3′,4′,5′,6′-tetrahydro-2′H-[3,4′]bipyridinyl-1′-yl)-ethanone] | -3.51% | – |
| O=C(COCCN1CCN(S(=O)(=O)c2ccccc2)CC1)N1CCC(O)(Cc2ccccc2)CC1 [Example 32, 2-[2-(4-phenylsulfonyl-piperazin-1-yl)-ethoxy]-1-(4-benzyl-4-hydroxy-piperidin-1-yl)-ethanone] | 6.63% | – |
| O=C(COC1CCCN(S(=O)(=O)c2ccccc2)C1)N1CCC(O)(Cc2ccccc2)CC1 (stereo not shown) [Example 27, 2-(1-phenylsulfonyl-piperidin-3-yloxy)-1-(4-benzyl-4-hydroxy-piperidin-1-yl)-ethanone] | 9.32% | – |
| COc1ccc(S(=O)(=O)N(C)CCOCC(=O)N2CCC(O)(Cc3ccccc3)CC2)cc1 [Example 28, N-{2-[2-(4-benzyl-4-hydroxy-piperidin-1-yl)-2-oxo-ethoxy]-ethyl}-4-methoxy-N-methyl-phenylsulfonamide] | 8.5% | – |
| COc1cc(C)c(S(=O)(=O)N(CCOCC(=O)N2CCC(O)(Cc3ccccc3)CC2)Cc2ccccc2)c(C)c1C [Example 13, N-benzyl-N-{2-[2-(4-benzyl-4-hydroxy-piperidin-1-yl)-2-oxo-ethoxy]-ethyl}-4-methoxy-2,3,6-trimethyl-phenylsulfonamide] | 50.7% | – |
| O=C(COC1CCN(S(=O)(=O)c2ccccc2)CC1)N1CCC(O)(Cc2ccccc2)CC1 [Example 37, 2-(1-phenylsulfonyl-piperidin-4-yloxy)-1-(4-benzyl-4-hydroxy-piperidin-1-yl)-ethanone] | 3.4% | – |
| O=C(COCC1CCCCN1S(=O)(=O)c1ccc(Cl)c(Cl)c1)N1CCC(O)(c2cccnc2)CC1 (stereo not shown) [Example 12, 2-[1-(3,4-dichloro-phenylsulfonyl)-piperidin-2-ylmethoxy]-1-(4′-hydroxy-3′,4′,5′,6′-tetrahydro-2′H-[3,4′]bipyridinyl-1′-yl)-ethanone] | 55.1% | – |
| O=C(COCC1CCCCN1S(=O)(=O)c1ccc(Cl)cc1)N1CCC(O)(Cc2ccccc2)CC1 (stereo not shown) [Example 53, 1-(4-benzyl-4-hydroxy-piperidin-1-yl)-2-[1-(4-chloro-phenylsulfonyl)-piperidin-2-ylmethoxy]-ethanone] | -11.4% | – |

Results, then the compound that gave them:

| inhibition at 10 µM [1] | inhibition at 10 µM [2] | Structure (SMILES) |
| --- | --- | --- |
| 105% | 99.9% | COc1cc(C)c(S(=O)(=O)N2CCCC2COCC(=O)N2CCC(O)(c3cccc(C(F)(F)F)c3)CC2)c(C)c1 (stereo not shown) [Example 217, 1-(4-hydroxy-4-(3-(trifluoromethyl)phenyl)piperidin-1-yl)-2-((1-(4-methoxy-2,6-dimethylphenylsulfonyl)pyrrolidin-2-yl)methoxy)ethanone] |
| – | 79.9% | COc1cc(C)c(S(=O)(=O)N2CCCC(COCC(=O)N3CCC(O)(c4ccc(Cl)c(C(F)(F)F)c4)CC3)C2)c(C)c1 (stereo not shown) [Example 253, 1-(4-(4-chloro-3-(trifluoromethyl)phenyl)-4-hydroxypiperidin-1-yl)-2-((1-(4-methoxy-2,6-dimethylphenylsulfonyl)piperidin-3-yl)methoxy)ethanone] |
| – | 105% | Cc1cc(S(=O)(=O)N2CCCCC2COCC(=O)N2CCC(O)(c3ccc(Cl)c(C(F)(F)F)c3)CC2)c(C)cc1Cl (stereo not shown) [Example 160, 2-((1-(4-chloro-2,5-dimethylphenylsulfonyl)piperidin-2-yl)methoxy)-1-(4-(4-chloro-3-(trifluoromethyl)phenyl)-4-hydroxypiperidin-1-yl)ethanone] |
| 103% | – | COc1cc(C)c(S(=O)(=O)N2CCC(OCCC(=O)N3CCC(O)(c4cccc(C(F)(F)F)c4)CC3)C2)c(C)c1 (stereo not shown) [Example 190, 1-(4-hydroxy-4-(3-(trifluoromethyl)phenyl)piperidin-1-yl)-3-(1-(4-methoxy-2,6-dimethylphenylsulfonyl)pyrrolidin-3-yloxy)propan-1-one] |
| – | 99.2% | O=C(COCC1CCCCN1S(=O)(=O)c1cc(Cl)sc1Cl)N1CCC(O)(c2ccc(Cl)c(C(F)(F)F)c2)CC1 (stereo not shown) [Example 247, 1-(4-(4-chloro-3-(trifluoromethyl)phenyl)-4-hydroxypiperidin-1-yl)-2-((1-(2,5-dichlorothiophen-3-ylsulfonyl)piperidin-2-yl)methoxy)ethanone] |
| 52.7% | – | COc1cc(C)c(S(=O)(=O)N2CCC(OCCC(=O)N3CCC(O)(c4ccccc4)CC3)C2)c(C)c1 (stereo not shown) [Example 188, 1-(4-hydroxy-4-phenylpiperidin-1-yl)-3-(1-(4-methoxy-2,6-dimethylphenylsulfonyl)pyrrolidin-3-yloxy)propan-1-one] |
